Test results from patent publication US20160038505A1, “METHODS AND COMPOSITIONS FOR TREATING IMPULSE CONTROL DISORDER, ANXIETY-RELATED DISORDERS, VIOLENCE AND/OR ANGER, OR REGULATING FOOD INTAKE” (priority 2014, published 2016).

Assay: Serum pharmacokinetics in opioid-dependent patients (Phase IB)
Type: in vivo, human
Set-up: unit not given here
Description: Three cohorts of nine (9) subjects (6 administered noribogaine and 3 administered placebo in each cohort) were evaluated for tolerability, pharmacokinetics, and efficacy. Cohort 1 received a single dose of 60 mg noribogaine or placebo. Cohort 2 received a single dose of 120 mg noribogaine or placebo. Cohort 3 received a single dose of 180 mg noribogaine or placebo.
FIG. 4 indicates the serum noribogaine concentration over time for each cohort.

Molecule `CC[C@H]1CC2C[C@H]3c4[nH]c5ccc(O)cc5c4CCN(C2)C13` [noribogaine] has a Serum noribogaine concentration (60 mg, time 0) of 0, a Serum noribogaine concentration (60 mg, time 0.5) of 3.75 and a Serum noribogaine concentration (60 mg, time 1) of 17.86. It also gave a Serum noribogaine concentration (60 mg, time 1.5) of 42.54, a Serum noribogaine concentration (60 mg, time 2) of 53.01 and a Serum noribogaine concentration (60 mg, time 2.5) of 63.71. The Serum noribogaine concentration (60 mg, time 3) was 72.95, the Serum noribogaine concentration (60 mg, time 3.5) was 71.43 and the Serum noribogaine concentration (60 mg, time 4) was 72.89. For the same molecule, the Serum noribogaine concentration (60 mg, time 5) was 65.74, the Serum noribogaine concentration (60 mg, time 6) was 64.47 and the Serum noribogaine concentration (60 mg, time 7) was 58.26. It also gave a Serum noribogaine concentration (60 mg, time 8) of 59.01, a Serum noribogaine concentration (60 mg, time 12) of 46.10 and a Serum noribogaine concentration (60 mg, time 16) of 37.99. It also gave a Serum noribogaine concentration (60 mg, time 24) of 27.76, a Serum noribogaine concentration (60 mg, time 36) of 20.32 and a Serum noribogaine concentration (60 mg, time 48) of 14.56. It also gave a Serum noribogaine concentration (60 mg, time 60) of 9.32, a Serum noribogaine concentration (60 mg, time 72) of 6.55 and a Serum noribogaine concentration (60 mg, time 96) of 3.41. For the same molecule, the Serum noribogaine concentration (60 mg, time 120) was 1.64, the Serum noribogaine concentration (60 mg, time 144) was 0.89 and the Serum noribogaine concentration (120 mg, time 0) was 0. The Serum noribogaine concentration (120 mg, time 0.5) was 19.66, the Serum noribogaine concentration (120 mg, time 1) was 76.04 and the Serum noribogaine concentration (120 mg, time 1.5) was 98.80. It also gave a Serum noribogaine concentration (120 mg, time 2) of 122.67, a Serum noribogaine concentration (120 mg, time 2.5) of 135.05 and a Serum noribogaine concentration (120 mg, time 3) of 130.55. The Serum noribogaine concentration (120 mg, time 3.5) was 128.20, the Serum noribogaine concentration (120 mg, time 4) was 143.90 and the Serum noribogaine concentration (120 mg, time 5) was 128.76. The Serum noribogaine concentration (120 mg, time 6) was 118.16, the Serum noribogaine concentration (120 mg, time 7) was 110.76 and the Serum noribogaine concentration (120 mg, time 8) was 102.12. The Serum noribogaine concentration (120 mg, time 12) was 77.88, the Serum noribogaine concentration (120 mg, time 16) was 62.24 and the Serum noribogaine concentration (120 mg, time 24) was 44.19. The Serum noribogaine concentration (120 mg, time 36) was 28.83, the Serum noribogaine concentration (120 mg, time 48) was 19.54 and the Serum noribogaine concentration (120 mg, time 60) was 10.75. It also gave a Serum noribogaine concentration (120 mg, time 72) of 7.75, a Serum noribogaine concentration (120 mg, time 96) of 4.66 and a Serum noribogaine concentration (120 mg, time 120) of 2.45. It also gave a Serum noribogaine concentration (120 mg, time 144) of 1.20, a Serum noribogaine concentration (180 mg, time 0) of 0 and a Serum noribogaine concentration (180 mg, time 0.5) of 10.78. For the same molecule, the Serum noribogaine concentration (180 mg, time 1) was 65.68, the Serum noribogaine concentration (180 mg, time 1.5) was 134.19 and the Serum noribogaine concentration (180 mg, time 2) was 163.32. The Serum noribogaine concentration (180 mg, time 2.5) was 179.63, the Serum noribogaine concentration (180 mg, time 3) was 221.67 and the Serum noribogaine concentration (180 mg, time 3.5) was 236.27. For the same molecule, the Serum noribogaine concentration (180 mg, time 4) was 238.87, the Serum noribogaine concentration (180 mg, time 5) was 217.26 and the Serum noribogaine concentration (180 mg, time 6) was 197.10. For the same molecule, the Serum noribogaine concentration (180 mg, time 7) was 207.47, the Serum noribogaine concentration (180 mg, time 8) was 185.55 and the Serum noribogaine concentration (180 mg, time 12) was 159.53. The Serum noribogaine concentration (180 mg, time 16) was 127.63, the Serum noribogaine concentration (180 mg, time 24) was 97.34 and the Serum noribogaine concentration (180 mg, time 36) was 59.50. The Serum noribogaine concentration (180 mg, time 48) was 43.75, the Serum noribogaine concentration (180 mg, time 60) was 33.69 and the Serum noribogaine concentration (180 mg, time 72) was 23.06. It also gave a Serum noribogaine concentration (180 mg, time 96) of 13.04, a Serum noribogaine concentration (180 mg, time 120) of 3.37 and a Serum noribogaine concentration (180 mg, time 144) of 1.61.
